Assay results reported in paper PMC5908784, “Extracellular loops 2 and 3 of the calcitonin receptor selectively modify agonist binding and efficacy” (Biochemical Pharmacology, 2018).
Substitutions are numbered along the chain they refer to. Where a SMILES comes first, the peptide text is derived from it. Bridges are numbered along the chain shown (N, C = ends).

Key:
Test in all cases: cAMP accumulation
Format in all cases: cell-based
Conditions in all cases: mean ± S.E.M.; for Emax: cAMP maximal response, SEM; for EC50: cAMP, CV1-FlpIn cells, 30 min, IBMX
[1] = biological target: T1, hCTR F359A (Homo sapiens, UniProt P30988, F359A)
T1 construct: expressed in transfected cells
T1 sequence (P30988 25-474 F359A): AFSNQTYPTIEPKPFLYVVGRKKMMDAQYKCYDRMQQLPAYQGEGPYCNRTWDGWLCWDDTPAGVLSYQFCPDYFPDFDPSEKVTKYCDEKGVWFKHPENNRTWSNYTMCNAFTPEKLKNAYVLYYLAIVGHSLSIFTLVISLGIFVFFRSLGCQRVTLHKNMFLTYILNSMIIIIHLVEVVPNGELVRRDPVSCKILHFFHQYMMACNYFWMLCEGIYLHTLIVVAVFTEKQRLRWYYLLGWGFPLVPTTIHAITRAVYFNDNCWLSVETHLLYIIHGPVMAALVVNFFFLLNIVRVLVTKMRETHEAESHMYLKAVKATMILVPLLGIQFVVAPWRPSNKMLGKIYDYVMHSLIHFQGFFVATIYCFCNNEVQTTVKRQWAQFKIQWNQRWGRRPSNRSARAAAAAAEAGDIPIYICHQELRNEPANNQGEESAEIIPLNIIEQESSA
Protocol: (§1) Cells (2.5 × 10^4 cells/well) were seeded into 96-well plates and incubated overnight. Cells were stimulated with increasing concentrations of ligands for 30 min in the presence of IBMX. The liquid was discarded, changed to absolute ethanol and volatilized to dryness at room temperature. […] Data were normalized to the response of 100 μM forskolin.
(§2) Data were corrected for radioligand occupancy using the Cheng-Prusoff equation in Prism; as such data are reported as pKi. Emax and EC50 were estimated from concentration-response curves using with a 3-parameter logistic equation in Prism (v7). These values are a composite of functional affinity, efficacy and stimulus response coupling. […] Significance was accepted at P < 0.05.

[2] = biological target: T2, hCTR WT (Homo sapiens, UniProt P30988)
T2 construct: expressed in transfected cells
T2 sequence (P30988 25-474): T1 sequence (P30988 25-474 F359A) with A335F
Protocol: as §1, §2

[3] = biological target: T3, hCTR S364A (Homo sapiens, UniProt P30988, S364A)
T3 construct: c-Myc (N); expressed in transfected cells
T3 sequence (P30988 25-474 S364A): T1 sequence (P30988 25-474 F359A) with A335F, S340A
Protocol: as §1, §2

[4] = biological target: T4, hCTR I371A (Homo sapiens, UniProt P30988, I371A)
T4 construct: c-Myc (N); expressed in transfected cells
T4 sequence (P30988 25-474 I371A): T1 sequence (P30988 25-474 F359A) with A335F, I347A
Protocol: as §1, §2

[5] = biological target: T5, hCTR S292A (Homo sapiens, UniProt P30988, S292A)
T5 construct: expressed in transfected cells
T5 sequence (P30988 25-474 S292A): T1 sequence (P30988 25-474 F359A) with S268A, A335F
Protocol: as §1, §2

EC50 [1] | EC50 [2] | EC50 [3] | EC50 [4] | EC50 [5] | Structure (SMILES) | Emax [1] | Emax [2] | Emax [3] | Emax [4] | Emax [5]
 |  |  |  |  | CC[C@H](C)[C@H](NC(=O)[C@H](C)NC(=O)[C@@H](NC(=O)[C@H](CCC(N)=O)NC(=O)[C@@H]1CCCN1C(=O)[C@H](Cc1ccccc1)NC(=O)[C@@H](NC(=O)[C@H](Cc1c[nH]cn1)NC(=O)[C@H](Cc1ccccc1)NC(=O)[C@H](CCCCN)NC(=O)[C@H](CC(N)=O)NC(=O)[C@H](Cc1ccccc1)NC(=O)[C@H](CC(=O)O)NC(=O)[C@H](CCC(N)=O)NC(=O)[C@@H](NC(=O)[C@H](Cc1ccc(O)cc1)NC(=O)[C@@H](NC(=O)CNC(=O)[C@H](CC(C)C)NC(=O)[C@H](CCSC)NC(=O)[C@@H]1CSSC[C@H](N)C(=O)NCC(=O)N[C@@H](CC(N)=O)C(=O)N[C@@H](CC(C)C)C(=O)N[C@@H](CO)C(=O)N[C@@H]([C@@H](C)O)C(=O)N1)[C@@H](C)O)[C@@H](C)O)[C@@H](C)O)[C@@H](C)O)C(=O)NCC(=O)N[C@H](C(=O)NCC(=O)N[C@@H](C)C(=O)N1CCC[C@H]1C(N)=O)C(C)C [hCT] | 130 ± 9% | 100 ± 2% | 97 ± 9% | 24 ± 2.7% | 135 ± 13%
18.6 nM | 11 nM | 16.6 nM | 132 nM | 22.4 nM | CC(C)C[C@H](NC(=O)CNC(=O)[C@H](C)NC(=O)[C@H](CC(C)C)NC(=O)[C@H](CCCNC(=N)N)NC(=O)[C@H](Cc1cnc[nH]1)NC(=O)[C@@H](NC(=O)[C@@H](NC(=O)[C@@H]1CSSC[C@H](NC(=O)[C@H](C)N)C(=O)N[C@@H](CC(=O)O)C(=O)N[C@@H]([C@@H](C)O)C(=O)N[C@@H](C)C(=O)N[C@@H]([C@@H](C)O)C(=O)N1)C(C)C)[C@@H](C)O)C(=O)N[C@@H](CC(C)C)C(=O)N[C@@H](CO)C(=O)N[C@@H](CCCNC(=N)N)C(=O)N[C@@H](CO)C(=O)NCC(=O)NCC(=O)N[C@H](C(=O)N[C@H](C(=O)N[C@@H](CCCCN)C(=O)N[C@@H](CC(N)=O)C(=O)N[C@@H](CC(N)=O)C(=O)N[C@@H](Cc1ccccc1)C(=O)N[C@H](C(=O)N1CCC[C@H]1C(=O)N[C@H](C(=O)N[C@@H](CC(N)=O)C(=O)N[C@H](C(=O)NCC(=O)N[C@@H](CO)C(=O)N[C@@H](CCCCN)C(=O)N[C@@H](C)C(=O)N[C@@H](Cc1ccccc1)C(N)=O)C(C)C)[C@@H](C)O)C(C)C)C(C)C)C(C)C [hαCGRP] | 53 ± 8% | 100 ± 7% | 83 ± 10% | 58 ± 15% | 106 ± 14%
0.162 nM | 0.0398 nM | 0.603 nM | 0.0794 nM | 0.0316 nM | CSCC[C@H](NC(=O)CNC(=O)[C@H](CO)NC(=O)[C@H](Cc1ccccc1)NC(=O)[C@H](CCCNC(=N)N)NC(=O)[C@H](Cc1c[nH]cn1)NC(=O)[C@H](Cc1ccccc1)NC(=O)[C@H](CC(N)=O)NC(=O)[C@H](CC(N)=O)NC(=O)[C@H](CC(C)C)NC(=O)[C@H](CC(N)=O)NC(=O)[C@H](CCCNC(=N)N)NC(=O)[C@H](Cc1c[nH]c2ccccc12)NC(=O)[C@H](Cc1ccc(O)cc1)NC(=O)[C@H](C)NC(=O)[C@H](CO)NC(=O)[C@H](CC(C)C)NC(=O)[C@@H](NC(=O)[C@@H]1CSSC[C@H](N)C(=O)N[C@@H](CO)C(=O)N[C@@H](CC(N)=O)C(=O)N[C@@H](CC(C)C)C(=O)N[C@@H](CO)C(=O)N[C@@H]([C@@H](C)O)C(=O)N1)C(C)C)C(=O)NCC(=O)N[C@@H](Cc1ccccc1)C(=O)NCC(=O)N1CCC[C@H]1C(=O)N[C@@H](CCC(=O)O)C(=O)N[C@H](C(=O)N1CCC[C@H]1C(N)=O)[C@@H](C)O [pCT] (H-CSNLSTCVLSAYWRNLNNFHRFSGMGFGPETP-NH2; disulfide 1-7) | 113 ± 8% | 100 ± 2% | 166 ± 16% | 35 ± 5% | 131 ± 9%
 |  |  |  |  | CC(C)C[C@H](NC(=O)[C@H](CC(N)=O)NC(=O)[C@H](CC(N)=O)NC(=O)[C@H](CO)NC(=O)[C@H](CO)NC(=O)[C@H](CCCNC(=N)N)NC(=O)[C@@H](NC(=O)[C@H](CC(C)C)NC(=O)[C@H](Cc1ccccc1)NC(=O)[C@H](CC(N)=O)NC(=O)[C@H](C)NC(=O)[C@H](CC(C)C)NC(=O)[C@H](CCCNC(=N)N)NC(=O)[C@H](CCC(N)=O)NC(=O)[C@@H](NC(=O)[C@H](C)NC(=O)[C@@H]1CSSC[C@H](NC(=O)[C@@H](N)CCCCN)C(=O)N[C@@H](CC(N)=O)C(=O)N[C@@H]([C@@H](C)O)C(=O)N[C@@H](C)C(=O)N[C@@H]([C@@H](C)O)C(=O)N1)[C@@H](C)O)C(C)C)C(=O)NCC(=O)N1CCC[C@H]1C(=O)N[C@H](C(=O)N[C@@H](CC(C)C)C(=O)N1CCC[C@H]1C(=O)N1CCC[C@H]1C(=O)N[C@H](C(=O)N[C@@H](CC(N)=O)C(=O)N[C@H](C(=O)NCC(=O)N[C@@H](CO)C(=O)N[C@@H](CC(N)=O)C(=O)N[C@H](C(=O)N[C@@H](Cc1ccc(O)cc1)C(N)=O)[C@@H](C)O)C(C)C)[C@@H](C)O)C(C)C [rAmy] | 95 ± 9% | 100 ± 4% | 56 ± 7% | 47 ± 7% | 95 ± 10%
 |  |  |  |  | CC(C)C[C@H](NC(=O)[C@H](CCCCN)NC(=O)CNC(=O)[C@H](CC(C)C)NC(=O)[C@@H](NC(=O)[C@@H]1CSSC[C@H](N)C(=O)N[C@@H](CO)C(=O)N[C@@H](CC(N)=O)C(=O)N[C@@H](CC(C)C)C(=O)N[C@@H](CO)C(=O)N[C@@H]([C@@H](C)O)C(=O)N1)C(C)C)C(=O)N[C@@H](CO)C(=O)N[C@@H](CCC(N)=O)C(=O)N[C@@H](CCC(=O)O)C(=O)N[C@@H](CC(C)C)C(=O)N[C@@H](Cc1c[nH]cn1)C(=O)N[C@@H](CCCCN)C(=O)N[C@@H](CC(C)C)C(=O)N[C@@H](CCC(N)=O)C(=O)N[C@H](C(=O)N[C@@H](Cc1ccc(O)cc1)C(=O)N1CCC[C@H]1C(=O)N[C@@H](CCCNC(=N)N)C(=O)N[C@H](C(=O)N[C@@H](CC(N)=O)C(=O)N[C@H](C(=O)NCC(=O)N[C@@H](CO)C(=O)NCC(=O)N[C@H](C(=O)N1CCC[C@H]1C(N)=O)[C@@H](C)O)[C@@H](C)O)[C@@H](C)O)[C@@H](C)O [sCT] | 84 ± 4% | 100 ± 1% | 102 ± 7% | 28 ± 2% | 119 ± 12%
